Assay results published in patent US10328093B2, “Anthracycline formulations” (CYTRX CORPORATION, priority 2012, dated 2019).

Experiments:
[1] = Stability of DOXO-EMCH in DI water with manual pH adjustment (RP-HPLC); assay type: physicochemical; conditions: for DOXO-EMCH / Doxorubicin: ~2.0 mg/mL in DI Water, manual pH adjustment to pH ~6.1 at 30 minute intervals
Experimental: (§1) To analyze DOXO-EMCH's behavior in solution, a reversed-phase (RP) HPLC method for quantitation of DOXO-EMCH and various impurities and degradation products was utilized. Samples (1.0 μL injection volume) were assayed on an HPLC system fitted with a Phenomenex Gemini C18 column 100×2.0 mm, 3 μm at a flow rate of 0.3 mL/min. The mobile phase used was an acetate/acetonitrile gradient. The degradation product EMCH could not be detected using the above HPLC method, and was therefore determined using a liquid chromatography-mass spectrometry (LC-MS) method.
An additional study was performed to obtain data on the stability of DOXO-EMCH dissolved in DI water with manual pH adjustment. The initial pH of the DOXO-EMCH solution (˜2.0 mg/mL) dissolved in DI Water was 5.4. At 30 minute intervals, the pH of the DOXO-EMCH solution was checked and adjusted to pH ˜6.1 by the dropwise addition of a 0.1 N NaOH solution.

[2] = pH stability study of DOXO-EMCH in DI Water or pH 4.0 buffer (RP-HPLC); assay type: physicochemical; conditions: for DOXO-EMCH / Doxorubicin / pH: room temperature
Experimental: as §1
Studies were performed to examine the effects of pH on DOXO-EMCH stability. In these studies, a criterion of less than 3% doxorubicin over 3-5 hours was set as the goal for stability of DOXO-EMCH. Overall, studies were designed to measure the degradation of DOXO-EMCH at room temperature into doxorubicin and EMCH. Doxorubicin was measured as a percentage of the starting DOXO-EMCH material. Due to solubility issues, the buffer controlled pH portion of the study could not be completed at pH 5.0, 5.5, 6.0 and 7.0. The results below are for DOXO-EMCH dissolved in DI Water at low (2.0 mg/mL) and high (20.0 mg/mL) concentration, and DOXO-EMCH dissolved in pH 4.0 phosphate citrate buffer at low concentration. In summary, none of the conditions met the goal of less than 3% doxorubicin HCl over a 3-5 hour period. […] The DOXO-EMCH dissolved in pH 4.0 phosphate citrate buffer was very unstable, likely as a result of the breakdown of the molecule at pH values below ˜4.5 (Table 6).

advanced cancer patients = conditions: Phase 1, 41 advanced cancer patients, cited from earlier work
[3] = ~2.0 mg/mL in DI Water, no pH adjustment, 0 hr
[4] = ~2.0 mg/mL in DI Water, no pH adjustment, 2 hr
[5] = ~2.0 mg/mL in DI Water, no pH adjustment, 4 hr
[6] = ~2.0 mg/mL in DI Water, no pH adjustment, 6 hr
[7] = ~2.0 mg/mL in pH 4.0 phosphate citrate buffer, 0 hr
[8] = ~2.0 mg/mL in pH 4.0 phosphate citrate buffer, 2 hr
[9] = ~2.0 mg/mL in pH 4.0 phosphate citrate buffer, 4 hr
[10] = ~20.0 mg/mL in DI Water, no pH adjustment, 0 hr
[11] = ~20.0 mg/mL in DI Water, no pH adjustment, 2 hr
[12] = ~20.0 mg/mL in DI Water, no pH adjustment, 4 hr
[13] = ~20.0 mg/mL in DI Water, no pH adjustment, 6 hr

COc1cccc2c1C(=O)c1c(O)c3c(c(O)c1C2=O)C[C@@](O)(/C(CO)=N/NC(=O)CCCCCN1C(=O)C=CC1=O)C[C@@H]3O[C@H]1C[C@H](N)[C@H](O)[C@H](C)O1.Cl [DOXO-EMCH]
initial pH of the DOXO-EMCH solution ([1]; ~2.0 mg/mL dissolved in DI Water, before adjustment): 5.4
DOXO-EMCH ([1]; 0 hr): 98.8 wt %
Doxorubicin ([1]; 0 hr): 0.5 wt %
DOXO-EMCH ([1]; 2 hr): 91.8 wt %
Doxorubicin ([1]; 2 hr): 2.4 wt %
DOXO-EMCH ([1]; 4 hr): 85.6 wt %
Doxorubicin ([1]; 4 hr): 3.6 wt %
DOXO-EMCH ([1]; 6 hr): 80.6 wt %
Doxorubicin ([1]; 6 hr): 4.3 wt %
stability ([2]; dissolved in pH 4.0 phosphate citrate buffer): very unstable
DOXO-EMCH [2, 3]: 95.8 wt %
Doxorubicin [2, 3]: 0.6 wt %
pH [2, 3]: 6.0
DOXO-EMCH [2, 4]: 82.8 wt %
Doxorubicin [2, 4]: 3.7 wt %
pH [2, 4]: 5.4
DOXO-EMCH [2, 5]: 76.7 wt %
Doxorubicin [2, 5]: 8.9 wt %
pH [2, 5]: 5.1
DOXO-EMCH [2, 6]: 68.6 wt %
Doxorubicin [2, 6]: 14.3 wt %
pH [2, 6]: 5.0
DOXO-EMCH [2, 7]: 65.1 wt %
Doxorubicin [2, 7]: 23.5 wt %
pH [2, 7]: 4.0
DOXO-EMCH [2, 8]: 7.3 wt %
Doxorubicin [2, 8]: 66.1 wt %
pH [2, 8]: 4.0
DOXO-EMCH [2, 9]: 2.9 wt %
Doxorubicin [2, 9]: 68.8 wt %
pH [2, 9]: 4.0
DOXO-EMCH [2, 10]: 86.0 wt %
Doxorubicin [2, 10]: 7.8 wt %
pH [2, 10]: 4.8
DOXO-EMCH [2, 11]: 74.9 wt %
Doxorubicin [2, 11]: 15.6 wt %
pH [2, 11]: 4.6
DOXO-EMCH [2, 12]: 56.7 wt %
Doxorubicin [2, 12]: 24.8 wt %
pH [2, 12]: 4.5
DOXO-EMCH [2, 13]: 45.2 wt %
Doxorubicin [2, 13]: 32.2 wt %
pH [2, 13]: 4.6
tumor response (advanced cancer patients; in some cases): induced tumor regression
clinical safety (advanced cancer patients): safe for clinical use
